Read-outs that look alike come from different tables or passages of the source.

One may read the Ki as a dissociation constant, usually derived from enzyme kinetics or from competition with a known ligand.

For test [1], the target named is T1, homoisocitrate dehydrogenase (HIcDH) (Saccharomyces cerevisiae, UniProt P40495). Briefly: HIcDH initial velocity studies. It counts as biochemical. The conditions noted are these: for Kact (activation constant): varied salt, MgHIc 4.2 µM, NAD 0.5 mM, fit to eq. 1.
T1 sequence (P40495 23-371): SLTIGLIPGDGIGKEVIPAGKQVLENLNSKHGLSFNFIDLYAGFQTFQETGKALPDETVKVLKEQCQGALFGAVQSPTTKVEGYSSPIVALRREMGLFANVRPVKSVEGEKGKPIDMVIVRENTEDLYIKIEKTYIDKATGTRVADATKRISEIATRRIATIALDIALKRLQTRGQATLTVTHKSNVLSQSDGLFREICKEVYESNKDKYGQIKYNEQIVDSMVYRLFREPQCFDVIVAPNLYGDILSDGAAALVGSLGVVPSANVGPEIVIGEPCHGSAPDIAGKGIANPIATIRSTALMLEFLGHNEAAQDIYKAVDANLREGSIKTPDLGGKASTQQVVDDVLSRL
Test [2] has as its target T1, homoisocitrate dehydrogenase (HIcDH). Briefly: Product and dead-end inhibition studies of HIcDH in the absence of K+. It counts as biochemical. As to conditions: NAD fixed at its Km.
Test [3] has the same target. Briefly: pH dependence of HIcDH kinetic parameters and of the activation constant of K+. The test is classed as biochemical.
The target is the same in test [4]. The conditions noted are these: in the presence of K+; cited from earlier work.

`C[N+](C)(C)C.[Cl-]` [tetramethylammonium chloride, reference compound]: the “initial rate as % of that without KCl” value in test [1] (200 mM, fixed concentrations of MgHIc and NAD) is on record as “about 36%”.

As for `O=C(O)CCC=C(C(=O)O)C(O)C(=O)O` (stereo not drawn) [CPM, 3-Carboxypropylidenemalate], the “inhibition constant, competitive versus MgHIc” value in test [2] is 65 ± 7 ∝M.

Take `[K+]` [K^+, Potassium]: the “appKact, pH independent value” in test [3] (KOAc varied, NAD 0.4 mM, MgHIc 10Km, average of data above pH 7) is recorded as “about 13 mM”. Also, in test [1] (read-out: KiK, NAD varied at fixed KOAc, MgHIc saturating (10Km), fit to eq. 5), the Kd worked out at 43 ± 19 mM.

In the case of `NC(=O)c1ccc[n+]([C@@H]2O[C@H](COP(=O)([O-])OP(=O)(O)OC[C@H]3O[C@@H](n4cnc5c(N)ncnc54)[C@H](O)[C@@H]3O)[C@@H](O)[C@H]2O)c1` [NAD, nicotinamide adenine dinucleotide], in test [3] (absence of K+, pH 8.5 to 9.7), the “V/KNADEt, constant value at high pH” value is “about 123 ± 3 M^−1s^−1”. The Kd in test [1] stood at 77 ± 57 mM. The KNAD came to 9 ± 3 mM in test [1] (KCl 0 mM); 1.6 ± 0.2 mM in test [1] (KCl 5 mM); 1.3 ± 0.1 mM in test [1] (KCl 15 mM); 0.8 ± 0.1 mM in test [1] (KCl 150 mM); 0.9 ± 0.2 mM in test [1] (KCl 350 mM); 9 ± 3 mM in test [1] (Minus KOAc, pH 8.0, 25°C). Also, the KNAD came to 0.3 ± 0.1 mM in test [1] (NAD varied at fixed KOAc, MgHIc saturating (10Km), fit to eq. 5) and 0.3 ± 0.1 mM in test [1] (Plus KOAc, pH 8.0, 25°C). The V1/KNADEt entry in test [1] (Minus KOAc, pH 8.0, 25°C) is “(5 ± 1) × 10^2 M^−1·s^−1”; in test [1] (Plus KOAc, pH 8.0, 25°C), “(4 ± 1) × 10^4 M^−1·s^−1”.

`[Cl-].[K+]` [KCl]: the “fold increase in initial rate” value in test [1] (200 mM KCl versus absence, reactants fixed at their Km values) was 13 fold. Moreover, the “Kact (activation constant)” value in test [1] was 55 ± 20 mM.

As to `CC(=O)[O-].[K+]` [KOAc, Potassium acetate], the “Ki fold higher than with KCl” value in test [1] (KOAc versus KCl) was 5 fold. Moreover, in test [1], the “Kact (activation constant)” value worked out at 26 ± 4 mM.

As for `NC(=O)C1=CN([C@@H]2O[C@H](COP(=O)(O)OP(=O)(O)OC[C@H]3O[C@@H](n4cnc5c(N)ncnc54)[C@H](O)[C@@H]3O)[C@@H](O)[C@H]2O)C=CC1` [NADH, reduced nicotinamide adenine dinucleotide], the inhibition constant (Ki) in test [4] is 0.3 mM.

(Values after article PMC2760454 (Biochemistry, 2008).)
